Patent US8895744B2, “Alfa-carboline inhibitors of NPM-ALK, RET, and Bcr-Abl” (Universita' Degli Studi di Milano-Bicocca, priority 2008, dated 2014)

Key:
[1] = biological target: T1, BaF3 cells transformed with the oncogenic fusion protein NPM/ALK (Homo sapiens, UniProt Q9UM73); test: Tritiated thymidine uptake cell proliferation assay, BaF3 NPM/ALK; format: cell-based; conditions: 3[H]-thymidine uptake, 72 h; read-out: BaF NPM/ALK IC50
T1 construct: fused on or other part: P06748 (Nucleophosmin)
Experimental: Inhibition of the proliferation of NPM/ALK positive cells
(§1) Method: Tritiated Thymidine Uptake Cell Proliferation Assay
(§2) The following procedure was used with parent untransformed BaF3 cells, BaF3 cells transformed with the oncogenic fusion protein NPM/ALK, NPM/ALK positive SUDHL-1 cells, ALK-negative U937 cells, NPM/ALK positive KARPAS-299 cells. The parent untransformed BaF3 cells and Alk-negative U937 cells are used as controls. Cells were seeded in U-bottomed 96-well plates at 10 000 cells/well in a volume of 100 μL in supplemented medium. In the case of the parent untransformed BaF3 cells, the medium was supplemented with IL-3. Serial dilutions of inhibitors were added to the appropriate wells and volumes adjusted to 200 μL. Controls were treated with the equivalent volume of vehicle, DMSO, alone. Plates were incubated at 37° C. for 72 h. ^3[H]-thymidine (1 μCi/well) was added for the last 16 h of incubation. Cells were harvested on to paper filters and ^3[H]-thymidine incorporation was measured using a β scintillation counter (1430 MicroBeta, Wallac, Turku, Finland). The 50% inhibitory concentration (IC50) was defined as the concentration of inhibitor, expressed in micromolar, that gave a 50% decrease in ^3[H]-thymidine uptake compared with controls.

[2] = system: parent untransformed BaF3 cells; test: Tritiated thymidine uptake cell proliferation assay, parental BaF3 (control); format: cell-based; conditions: Mus musculus, 3[H]-thymidine uptake, 72 h, medium with IL-3, read-out: BaF parental IC50
Experimental: as §1, §2
as §2, with “protein bcr-abl, Abl-negative” for “protein NPM/ALK, NPM/ALK positive SUDHL-1 cells, ALK-negative”, “cells, or Bcr-abl” for “cells, NPM/ALK”, “positive LAMA-84” for “positive KARPAS-299”, “and Abl-negative” for “and Alk-negative”, “in ^3H-thymidine” for “in ^3[H]-thymidine”
as §2, with “RET-PTC2, or RET-negative 11937” for “NPM/ALK, NPM/ALK positive SUDHL-1 cells, ALK-negative U937 cells, NPM/ALK positive KARPAS-299”, “RET-negative” for “Alk-negative”

[3] = biological target: T2, Recombinant Abl T315I protein (Homo sapiens, UniProt P00519, T315I); test: Abl T315I mutant kinase inhibitory activity, ELISA-based in vitro kinase assay; format: biochemical; conditions: purified Abl T315I, 0.3 mM ATP
T2 construct: made in house; host or cells: Sf9 cells (baculovirus)
Experimental: (§3) Recombinant ALK kinase was expressed in Sf9 insect cells using the pBlueBacHis2C baculovirus vector system and purified using an anion exchange Fast Flow Q-sepharose column (Amersham-Pharmacia Biotech) followed by HiTrap™-nickel affinity column (Amersham-Pharmacia Biotech). Purified ALK protein was used to screen inhibitors in the ELISA-based kinase assay. A Nunc Immuno 96 well plate was incubated overnight at 37° C. with coating solution (125 μL/well) containing ALK peptide substrate ([…]) (SEQ ID NO: 1) at various concentrations in PBS. Wells were then washed with 200 μL of wash buffer (PBS-Tween 0.05%) and left to dry for at least 2 h at 37° C. The kinase reaction was performed in the presence of 50 mM Tris pH 7.5, 5 mM MnCl2, 5 mM MgCl2, 0.3 mM ATP and purified rALK in a total volume of 100 μL/well at 30° C. for 15 min. For inhibitor testing the reaction mix was preincubated with the inhibitor or solvent control for 10 min at room temperature before transferring to the ELISA plate. After the reaction wells were washed 5 times with 200 μL of wash buffer. Phosphorylated peptide was detected using 100 μL/well of a mouse monoclonal anti-phosphotyrosine antibody (clone 4G10 Upstate Biotech Ltd) diluted 1:2000 in PBS+4% BSA. After 30 min incubation at room temperature the antibody was removed and wells were washed as described above. 100 μL of a secondary antibody (anti-mouse IgG, Horseradish Peroxidase linked whole antibody, Amersham Pharmacia Biotech) diluted 1:1000 in PBS+4% BSA was added to each well and the plate was incubated again for 30 min at room temperature before washing as above. The plate was developed using 100 μL/well TMB Substrate Solution (Endogen) and the reaction was stopped by adding an equiv.ual volume of H2SO4 0.36 M. Finally, the absorbance was read at 450 nm using an Ultrospec® 300 spectrophotometer (Amersham-Pharmacia Biotech). The concentration of the test solution showing 50% inhibition as compared with the control was expressed as IC50 (μM).
37. Abl T315I Mutant Kinase Inhibitory Activity
(§4) Method: ELISA-Based In Vitro Kinase Assay
Recombinant Abl T315I protein was expressed in Sf9 cells using the pBlueBacHis2C baculovirus expression vector. Abl T315I was purified using an anion exchange Fast Flow Q-sepharose column (Amersham-Pharmacia Biotech) followed by HiTrap™-nickel affinity column (Amersham-Pharmacia Biotech). Purified Abl T315I was used in the ELISA-based kinase assay to screen inhibitors as described above. The kinase reaction was performed in the presence of 50 mM Tris pH 7.5, 1 mM MnCl2, 5 mM MgCl2, 0.3 mM ATP, peptide substrate ([…]) (SEQ ID NO: 1) and purified Abl T315I. The concentration of the test solution showing 50% inhibition as compared with the control was expressed as IC50 (μM).

Recombinant ALK kinase = biological target: T3, Recombinant ALK kinase (Homo sapiens, UniProt Q9UM73); test: ALK kinase inhibitory activity, ELISA-based in vitro kinase assay; format: biochemical; conditions: purified rALK, 0.3 mM ATP, read-out: ALK IC50
T3 construct: made in house; host or cells: Sf9 insect cells (baculovirus)
Experimental: 36. Alk Kinase Inhibitory Activity
as §4, §3

T1 sequence (Q9UM73 whole entry, change not shown, the tested form may be a part): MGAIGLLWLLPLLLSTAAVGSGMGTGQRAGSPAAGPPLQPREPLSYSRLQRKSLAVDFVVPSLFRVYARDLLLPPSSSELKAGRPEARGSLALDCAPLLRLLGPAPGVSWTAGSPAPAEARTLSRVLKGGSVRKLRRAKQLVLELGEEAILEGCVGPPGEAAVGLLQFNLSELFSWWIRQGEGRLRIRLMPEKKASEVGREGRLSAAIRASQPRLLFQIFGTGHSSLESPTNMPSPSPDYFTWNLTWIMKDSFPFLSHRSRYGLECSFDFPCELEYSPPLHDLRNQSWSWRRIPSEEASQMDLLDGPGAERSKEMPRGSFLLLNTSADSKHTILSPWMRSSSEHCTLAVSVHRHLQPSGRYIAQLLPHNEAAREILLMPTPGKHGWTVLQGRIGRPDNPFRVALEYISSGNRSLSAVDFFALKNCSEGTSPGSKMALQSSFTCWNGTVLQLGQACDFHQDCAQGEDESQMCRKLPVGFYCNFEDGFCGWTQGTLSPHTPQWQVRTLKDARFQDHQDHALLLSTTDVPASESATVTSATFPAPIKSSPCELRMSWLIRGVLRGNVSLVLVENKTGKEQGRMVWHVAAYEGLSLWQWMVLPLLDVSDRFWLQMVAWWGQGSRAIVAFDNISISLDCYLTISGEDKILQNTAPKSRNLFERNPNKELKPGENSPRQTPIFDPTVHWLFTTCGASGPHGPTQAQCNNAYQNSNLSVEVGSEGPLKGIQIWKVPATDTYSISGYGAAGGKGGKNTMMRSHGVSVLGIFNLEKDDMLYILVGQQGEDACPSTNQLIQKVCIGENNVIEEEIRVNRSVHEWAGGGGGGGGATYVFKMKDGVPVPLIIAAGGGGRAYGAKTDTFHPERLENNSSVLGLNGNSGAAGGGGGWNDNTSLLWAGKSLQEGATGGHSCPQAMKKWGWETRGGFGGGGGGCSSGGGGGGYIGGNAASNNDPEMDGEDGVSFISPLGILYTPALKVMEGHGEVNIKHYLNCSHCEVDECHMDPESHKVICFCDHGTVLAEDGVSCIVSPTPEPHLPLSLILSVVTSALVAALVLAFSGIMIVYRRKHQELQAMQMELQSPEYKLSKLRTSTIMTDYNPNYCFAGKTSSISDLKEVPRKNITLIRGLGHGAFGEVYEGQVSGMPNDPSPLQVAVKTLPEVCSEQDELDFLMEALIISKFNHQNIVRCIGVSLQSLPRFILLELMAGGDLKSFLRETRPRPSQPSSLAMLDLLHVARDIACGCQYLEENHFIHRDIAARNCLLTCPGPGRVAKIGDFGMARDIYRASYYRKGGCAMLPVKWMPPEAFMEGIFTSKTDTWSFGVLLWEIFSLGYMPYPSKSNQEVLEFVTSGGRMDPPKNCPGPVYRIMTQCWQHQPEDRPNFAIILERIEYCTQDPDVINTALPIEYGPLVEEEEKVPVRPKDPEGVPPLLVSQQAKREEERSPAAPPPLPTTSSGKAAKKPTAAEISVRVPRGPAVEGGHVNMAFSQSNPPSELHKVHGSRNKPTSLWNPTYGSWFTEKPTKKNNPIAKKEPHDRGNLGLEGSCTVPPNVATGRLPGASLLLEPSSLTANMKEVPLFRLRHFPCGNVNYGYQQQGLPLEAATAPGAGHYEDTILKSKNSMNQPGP
T3 sequence (Q9UM73 19-1620): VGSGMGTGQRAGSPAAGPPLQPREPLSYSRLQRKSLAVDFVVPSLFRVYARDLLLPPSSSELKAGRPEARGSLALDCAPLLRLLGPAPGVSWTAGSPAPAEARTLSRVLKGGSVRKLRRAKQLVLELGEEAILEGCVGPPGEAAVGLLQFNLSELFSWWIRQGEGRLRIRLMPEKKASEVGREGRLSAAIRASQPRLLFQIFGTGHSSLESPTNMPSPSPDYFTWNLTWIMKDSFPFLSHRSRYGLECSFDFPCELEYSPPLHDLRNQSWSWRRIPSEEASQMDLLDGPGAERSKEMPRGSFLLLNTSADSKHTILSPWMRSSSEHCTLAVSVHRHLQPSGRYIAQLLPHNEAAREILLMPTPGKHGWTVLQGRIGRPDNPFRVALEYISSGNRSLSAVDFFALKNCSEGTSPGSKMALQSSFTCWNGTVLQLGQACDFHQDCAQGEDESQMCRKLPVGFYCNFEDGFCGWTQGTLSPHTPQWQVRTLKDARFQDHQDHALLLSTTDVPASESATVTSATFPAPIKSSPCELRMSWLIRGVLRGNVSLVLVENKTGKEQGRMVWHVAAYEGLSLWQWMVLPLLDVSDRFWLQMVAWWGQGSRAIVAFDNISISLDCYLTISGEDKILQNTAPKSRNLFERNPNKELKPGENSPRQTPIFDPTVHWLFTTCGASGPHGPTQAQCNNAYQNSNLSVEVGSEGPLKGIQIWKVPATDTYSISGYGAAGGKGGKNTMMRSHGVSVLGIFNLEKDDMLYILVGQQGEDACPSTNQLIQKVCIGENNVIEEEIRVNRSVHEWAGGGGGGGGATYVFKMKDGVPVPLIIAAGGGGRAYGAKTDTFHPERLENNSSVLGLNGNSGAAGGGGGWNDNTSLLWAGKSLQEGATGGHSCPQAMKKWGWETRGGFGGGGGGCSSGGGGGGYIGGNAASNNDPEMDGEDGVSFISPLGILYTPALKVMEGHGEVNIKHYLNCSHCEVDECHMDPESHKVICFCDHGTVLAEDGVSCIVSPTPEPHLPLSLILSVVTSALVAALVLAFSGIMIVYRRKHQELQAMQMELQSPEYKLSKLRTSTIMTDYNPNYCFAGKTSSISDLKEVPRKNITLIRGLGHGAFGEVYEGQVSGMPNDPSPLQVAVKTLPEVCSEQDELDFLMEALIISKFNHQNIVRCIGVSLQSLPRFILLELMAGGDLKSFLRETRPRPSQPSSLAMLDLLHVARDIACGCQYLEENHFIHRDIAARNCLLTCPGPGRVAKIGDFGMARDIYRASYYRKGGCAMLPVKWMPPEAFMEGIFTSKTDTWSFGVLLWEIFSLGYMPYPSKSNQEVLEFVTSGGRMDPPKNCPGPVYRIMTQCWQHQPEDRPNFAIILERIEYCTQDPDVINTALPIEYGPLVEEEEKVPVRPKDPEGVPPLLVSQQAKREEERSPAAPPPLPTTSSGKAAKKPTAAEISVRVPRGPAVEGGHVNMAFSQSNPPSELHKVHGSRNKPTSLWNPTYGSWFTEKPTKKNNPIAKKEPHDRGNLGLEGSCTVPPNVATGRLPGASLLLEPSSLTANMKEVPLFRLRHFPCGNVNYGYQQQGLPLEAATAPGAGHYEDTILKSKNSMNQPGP

Row | Structure (SMILES) | melting point [°C] | also measured
1 | O=C(O)CCC(=O)c1ccc2[nH]c3ncc(Cl)cc3c2c1 [compound 11, 4-(3-Chloro-9H-pyrido[2,3-b]indol-6-yl)-4-oxo-butyric acid] | 243 | –
2 | O=C(O)c1ccc2[nH]c3ncc(Cl)cc3c2c1 [compound 5, 3-chloro-9H-pyrido[2,3-b]indol-6-carboxylic acid] | > 295 | –
3 | Cc1ccc2c(n1)[nH]c1ccc(C(=O)O)cc12 [compound 6, 2-methyl-9H-pyrido[2,3-b]indol-6-carboxylic acid] | > 295 | –
4 | c1coc(-c2ccnc3[nH]c4ccccc4c23)c1 [R327, 4-(furan-2-yl)-9H-pyrido[2,3-b]indole] | > 220 | GI50 [1]: 26 µM; IC50 [2]: > 100 µM
5 | C(=C\c1ccnc2[nH]c3ccccc3c12)/c1ccccc1 [R310, 4-(2′-phenylethenyl)-9H-pyrido[2,3-b]indole] | > 220 | –
6 | Clc1ccnc2[nH]c3ccc(Br)cc3c12 [compound 10, 6-bromo-4-chloro-9H-pyrido[2,3-b]indole] | > 220 | –
7 | Clc1ccc2c(n1)[nH]c1ccc(Br)cc12 [compound 9, 6-bromo-2-chloro-9H-pyrido[2,3-b]indole] | > 220 | –
8 | O=C(O)CCC(=O)c1ccc2[nH]c3nc(Cl)ccc3c2c1 [compound 12, 4-(2-Chloro-9H-pyrido[2,3-b]indol-6-yl)-4-oxo-butyric acid] | 280.8 | –
9 | O=S(=O)(c1ccccc1)n1c2ccc(/C=C/c3ccccc3)cc2c2c(Cl)ccnc21 [compound 35, 9-benzenesulfonyl-4-chloro-6-(2′-phenylethenyl)-9H-pyrido[2,3-b]indole] | 216 to 218 | –
10 | CN1CCN(C(=O)CCC(=O)c2ccc3[nH]c4ncc(Cl)cc4c3c2)CC1 [R303, 1-(3-Chloro-9H-pyrido[2,3-b]indol-6-yl)-4-(4-methylpiperazin-1-yl)butane-1,4-dione] | – | IC50 [3]: 87 µM; GI50 [1]: 5.1 µM; IC50 (Recombinant ALK kinase): 93 ± 1 µM; IC50 [2]: 9.5 µM
11 | CCN(CC)CCSCC(=O)c1ccc2[nH]c3nc(Cl)ccc3c2c1 [R305, 1-(2-Chloro-9H-pyrido[2,3-b]indol-6-yl)-2-(N,N-diethylaminoethylsulfanyl)ethan-1-one] | – | IC50 [3]: 16 µM; GI50 [1]: 5.2 µM; IC50 (Recombinant ALK kinase): 17 ± 1 µM; IC50 [2]: 5.5 µM

Second part, led by results:

Row | melting point [°C] | Structure (SMILES) | also measured
12 | 204 to 206 | O=S(=O)(c1ccccc1)n1c2ccc(Br)cc2c2ccc(Cl)nc21 [compound 19, 9-benzenesulfonyl-6-bromo-2-chloro-9H-pyrido[2,3-b]indole] | –
13 | 158 to 162 | O=S(=O)(c1ccccc1)n1c2ccc(CCc3ccccc3)cc2c2cc(Cl)cnc21 [compound 61, 9-(benzenesulfonyl)-3-chloro-6-(2′-phenylethyl)-9H-pyrido[2,3-b]indole] | –
14 | 242 | O=S(=O)(c1ccccc1)n1c2ccc(Br)cc2c2cc(Cl)cnc21 [compound 20, 9-benzenesulfonyl-6-bromo-3-chloro-9H-pyrido[2,3-b]indole] | –
15 | 190 to 192 | COc1ccc(-c2ccc3c(c2)c2c(/C=C/c4ccccc4)ccnc2n3S(=O)(=O)c2ccccc2)cc1 [compound 45, 9-benzenesulfonyl-6-(4-methoxyphenyl)-4-(2′-phenylethenyl)-9H-pyrido[2,3-b]indole] | –
16 | 212 to 214 | O=S(=O)(c1ccccc1)n1c2ccc(Br)cc2c2c(Cl)ccnc21 [compound 21, 9-benzenesulfonyl-6-bromo-4-chloro-9H-pyrido[2,3-b]indole] | –
17 | 206 to 208 | COc1ccc(-c2ccc3c(c2)c2ccc(-c4ccc(OC)cc4)nc2n3S(=O)(=O)c2ccccc2)cc1 [compound 36, 9-benzenesulfonyl-2,6-di(4-methoxyphenyl)-9H-pyrido[2,3-b]indole] | –
18 | 162 to 164 | COc1ccc(-c2ccc3c(c2)c2c(-c4ccc(OC)cc4)ccnc2n3S(=O)(=O)c2ccccc2)cc1 [compound 37, 9-benzenesulfonyl-4,6-di(4-methoxyphenyl)-9H-pyrido[2,3-b]indole] | –
19 | 176 to 178 | COc1ccc(-c2ccc3c(c2)c2ccc(Cl)nc2n3S(=O)(=O)c2ccccc2)cc1 [compound 32, 9-benzenesulfonyl-2-chloro-6-(4-methoxyphenyl)-9H-pyrido[2,3-b]indole] | –
20 | 193 to 195 | COc1ccc(-c2ccc3c(c2)c2ccc(/C=C/c4ccccc4)nc2n3S(=O)(=O)c2ccccc2)cc1 [compound 43, 9-benzenesulfonyl-6-(4-methoxyphenyl)-2-(2′-phenylethenyl)-9H-pyrido[2,3-b]indole] | –
21 | 209 to 211 | COc1ccc(-c2ccc3c(c2)c2c(Cl)ccnc2n3S(=O)(=O)c2ccccc2)cc1 [compound 34, 9-benzenesulfonyl-4-chloro-6-(4-methoxyphenyl)-9H-pyrido[2,3-b]indole] | –
22 | 190 to 192 | O=S(=O)(c1ccccc1)n1c2ccc(/C=C/c3ccccc3)cc2c2cc(Cl)cnc21 [compound 27, 9-benzenesulfonyl-3-chloro-6-(2′-phenylethenyl)-9H-pyrido[2,3-b]indole] | –
23 | > 220 | COc1ccc(-c2ccc3c(c2)c2cc(Cl)cnc2n3S(=O)(=O)c2ccccc2)cc1 [compound 26, 9-benzenesulfonyl-3-chloro-6-(4-methoxyphenyl)-9H-pyrido[2,3-b]indole] | –
